Results published in patent publication US10106544B2, “1,2-dihydro-3H-pyrrolo[1,2-C]imidazol-3-one derivatives and their use as antibacterial agents” (priority 2014, dated 2018).
Values after ≈ are worked out from the molar mass of the structure shown. Read-outs that look alike come from different tables or passages of the source.

Tests used:
Assay in all cases: Bacterial growth minimal inhibitory concentration (microdilution, cation-adjusted Mueller-Hinton Broth)
Format in all cases: cell-based
P. aeruginosa ATCC27853 = settings: for MIC: Pseudomonas aeruginosa
Outline: (§1)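 Broth microdilution in cation-adjusted Mueller-Hinton Broth per CLSI M7-A7, MIC in mg/L. K. pneumoniae A-651 is multiply resistant, including to quinolones. E. coli ATCC25922 and P. aeruginosa ATCC27853 are quinolone-sensitive.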

K. pneumoniae A-651 = settings: for MIC: Klebsiella pneumoniae
Outline: as §1

E. coli ATCC25922 = settings: for MIC: Escherichia coli
Outline: as §1

[1] = ATCC27853, quinolone-sensitive strain, read-out: MIC for P. aeruginosa ATCC27853
[2] = A651, multiply-resistant strain (in particular quinolone-resistant), read-out: MIC for K. Pneumoniae A-651
[3] = ATCC25922, quinolone-sensitive strain, read-out: MIC for E. coli ATCC25922

SMILES	MIC (P. aeruginosa ATCC27853; [1]) [µg/mL]	MIC (K. pneumoniae A-651; [2]) [µg/mL]	MIC (E. coli ATCC25922; [3]) [µg/mL]	also measured
C[C@@](CCN1Cc2cc(C#CC#CC3(CO)CC3)cn2C1=O)(C(=O)NO)S(C)(=O)=O [Example 15, (R)-N-hydroxy-4-(6-((1-(hydroxymethyl)cyclopropyl)buta-1,3-diyn-1-yl)-3-oxo-1H-pyrrolo[1,2-c]imidazol-2(3H)-yl)-2-methyl-2-(methylsulfonyl)butanamide]	1 (≈ 2.31 µM)	1 (≈ 2.31 µM)	0.5 (≈ 1.15 µM)	
C[C@@](CCN1Cc2cc(C#CC#CC[C@]3(O)C[C@@H](CO)C3)cn2C1=O)(C(=O)NO)S(C)(=O)=O [Example 73, (R)-N-hydroxy-4-(6-(5-((1s,3R)-1-hydroxy-3-(hydroxymethyl)cyclobutyl)penta-1,3-diyn-1-yl)-3-oxo-1H-pyrrolo[1,2-c]imidazol-2(3H)-yl)-2-methyl-2-(methylsulfonyl)butanamide]				MIC for P. aeruginosa ATCC27853 (P. aeruginosa ATCC27853; quinolone-sensitive strain): 4 µg/mL; MIC for K. Pneumoniae A-651 (K. pneumoniae A-651; multiply-resistant strain (in particular quinolone-resistant)): 16 µg/mL; MIC for E. coli ATCC25922 (E. coli ATCC25922; quinolone-sensitive strain): 8 µg/mL
C[C@@](CCN1Cc2cc(C#CC#C[C@H]3C[C@]3(F)CO)cn2C1=O)(C(=O)NO)S(C)(=O)=O (single isomer, unassigned) [Example 78]	0.5 (≈ 1.11 µM)	0.5 (≈ 1.11 µM)	0.25 (≈ 0.554 µM)	
C[C@@](CCN1Cc2cc(C#Cc3ccc(CN4CCC(O)CC4)cc3)cn2C1=O)(C(=O)NO)S(C)(=O)=O [Example 80, (R)-N-hydroxy-4-(6-((4-((4-hydroxypiperidin-1-yl)methyl)phenyl)ethynyl)-3-oxo-1H-pyrrolo[1,2-c]imidazol-2(3H)-yl)-2-methyl-2-(methylsulfonyl)butanamide]	1 (≈ 1.89 µM)	2 (≈ 3.78 µM)	1 (≈ 1.89 µM)	
C[C@@](CCN1Cc2cc(C#CC#CC3(O)COC3)cn2C1=O)(C(=O)NO)S(C)(=O)=O [Example 4, (R)-N-hydroxy-4-(6-((3-hydroxyoxetan-3-yl)buta-1,3-diyn-1-yl)-3-oxo-1H-pyrrolo[1,2-c]imidazol-2(3H)-yl)-2-methyl-2-(methylsulfonyl)butanamide]	4 (≈ 9.19 µM)	2 (≈ 4.59 µM)	2 (≈ 4.59 µM)	
C[C@@](CCN1Cc2cc(C#Cc3ccc(CN4CCC(N)CC4)cc3)cn2C1=O)(C(=O)NO)S(C)(=O)=O.Cl.Cl [Example 77, (R)-4-(6-((4-((4-aminopiperidin-1-yl)methyl)phenyl)ethynyl)-3-oxo-1H-pyrrolo[1,2-c]imidazol-2(3H)-yl)-N-hydroxy-2-methyl-2-(methylsulfonyl)butanamide dihydrochloride]	2	16	8	
C[C@@](CCN1Cc2cc(C#Cc3ccc([C@@H]4C[C@H]4CO)cc3)cn2C1=O)(C(=O)NO)S(C)(=O)=O [Example 5, (R)-N-hydroxy-4-(6-((4-((1R,2R)-2-(hydroxymethyl)cyclopropyl)phenyl)ethynyl)-3-oxo-1H-pyrrolo[1,2-c]imidazol-2(3H)-yl)-2-methyl-2-(methylsulfonyl)butanamide]	0.5 (≈ 1.03 µM)	0.125 (≈ 0.257 µM)	≤ 0.063	
C[C@@](CCN1Cc2cc(C#Cc3ccc(NC(=O)CO)cc3)cn2C1=O)(C(=O)NO)S(C)(=O)=O [Example 71, (R)-N-hydroxy-4-(6-((4-(2-hydroxyacetamido)phenyl)ethynyl)-3-oxo-1H-pyrrolo[1,2-c]imidazol-2(3H)-yl)-2-methyl-2-(methylsulfonyl)butanamide]	1 (≈ 2.05 µM)	1 (≈ 2.05 µM)	0.25 (≈ 0.512 µM)	
C[C@@](CCN1Cc2cc(C#CC#CC3(N)CC3)cn2C1=O)(C(=O)NO)S(C)(=O)=O.Cl [Example 38, (R)-4-(6-((1-aminocyclopropyl)buta-1,3-diyn-1-yl)-3-oxo-1H-pyrrolo[1,2-c]imidazol-2(3H)-yl)-N-hydroxy-2-methyl-2-(methylsulfonyl)butanamide hydrochloride]	1	0.25	0.25	
COC(=O)c1ccc(-c2cc3n(c2)C(=O)N(CC[C@](C)(C(=O)NO)S(C)(=O)=O)C3)c(F)c1 [Example 47, methyl (R)-3-fluoro-4-(2-(4-(hydroxyamino)-3-methyl-3-(methylsulfonyl)-4-oxobutyl)-3-oxo-2,3-dihydro-1H-pyrrolo[1,2-c]imidazol-6-yl)benzoate]	8 (≈ 17.1 µM)	0.25 (≈ 0.535 µM)	≤ 0.063	
C[C@@](CCN1Cc2cc(C#Cc3ccc(C4(CO)CC4)cn3)cn2C1=O)(C(=O)NO)S(C)(=O)=O.O=CO [Example 24, (R)-N-hydroxy-4-(6-((5-(1-(hydroxymethyl)cyclopropyl)pyridin-2-yl)ethynyl)-3-oxo-1H-pyrrolo[1,2-c]imidazol-2(3H)-yl)-2-methyl-2-(methylsulfonyl)butanamide formate]	8	32	8	
C[C@@](CCN1Cc2cc(C#CC#CC3CN(C4COC4)C3)cn2C1=O)(C(=O)NO)S(C)(=O)=O [Example 83, (R)-N-hydroxy-2-methyl-2-(methylsulfonyl)-4-(6-((1-(oxetan-3-yl)azetidin-3-yl)buta-1,3-diyn-1-yl)-3-oxo-1H-pyrrolo[1,2-c]imidazol-2(3H)-yl)butanamide]	1 (≈ 2.11 µM)	0.5 (≈ 1.05 µM)	0.5 (≈ 1.05 µM)	
C[C@@](CCN1Cc2cc(C#Cc3ccc(C4(N)CC4)cc3)cn2C1=O)(C(=O)NO)S(C)(=O)=O [Example 72, (R)-4-(6-((4-(1-aminocyclopropyl)phenyl)ethynyl)-3-oxo-1H-pyrrolo[1,2-c]imidazol-2(3H)-yl)-N-hydroxy-2-methyl-2-(methylsulfonyl)butanamide]				MIC (P. aeruginosa ATCC27853; ATCC27853, read-out: MIC for P. aeruginosa ATCC27853): 0.5 µg/mL (≈ 1.06 µM); MIC (K. pneumoniae A-651; A651, read-out: MIC for K. Pneumoniae A-651): 0.25 µg/mL (≈ 0.531 µM); MIC (E. coli ATCC25922; ATCC25922, read-out: MIC for E. coli ATCC25922): 0.125 µg/mL (≈ 0.266 µM)
CC(CCN1Cc2cc(-c3ccc(OCCO)cc3)cn2C1=O)(C(=O)NO)S(C)(=O)=O (racemic) [RE7, (RS)—N-hydroxy-4-(6-(4-(2-hydroxyethoxy)phenyl)-3-oxo-1H-pyrrolo[1,2-c]imidazol-2(3H)-yl)-2-methyl-2-(methylsulfonyl)butanamide]	8 (≈ 17.7 µM)	8 (≈ 17.7 µM)	4 (≈ 8.86 µM)	
C[C@@](CCN1Cc2cc(C#CC#C[C@@]3(F)C[C@@H]3CO)cn2C1=O)(C(=O)NO)S(C)(=O)=O (relative stereo) [Example 66, (R)-4-(6-(((1R*,2R*)-1-fluoro-2-(hydroxymethyl)cyclopropyl)buta-1,3-diyn-1-yl)-3-oxo-1H-pyrrolo[1,2-c]imidazol-2(3H)-yl)-N-hydroxy-2-methyl-2-(methylsulfonyl)butanamide]	1 (≈ 2.21 µM)	0.5 (≈ 1.11 µM)	0.125 (≈ 0.277 µM)	
C[C@@](CCN1Cc2cc(C#Cc3ccc(CO)cc3)cn2C1=O)(C(=O)NO)S(C)(=O)=O [Example 3, (R)-N-hydroxy-4-(6-((4-(hydroxymethyl)phenyl)ethynyl)-3-oxo-1H-pyrrolo[1,2-c]imidazol-2(3H)-yl)-2-methyl-2-(methylsulfonyl)butanamide]	2 (≈ 4.49 µM)	0.5 (≈ 1.12 µM)	0.125 (≈ 0.281 µM)	
CC(CCN1Cc2cc(-c3ccc(C4(O)COC4)cc3)cn2C1=O)(C(=O)NO)S(C)(=O)=O (racemic) [RE1, (RS)—N-hydroxy-4-(6-(4-(3-hydroxyoxetan-3-yl)phenyl)-3-oxo-1H-pyrrolo[1,2-c]imidazol-2(3H)-yl)-2-methyl-2-(methylsulfonyl)butanamide]	16 (≈ 34.5 µM)	16 (≈ 34.5 µM)	8 (≈ 17.3 µM)	
C[C@@](CCN1Cc2cc(C#Cc3ccc(C(F)(F)CO)cc3)cn2C1=O)(C(=O)NO)S(C)(=O)=O [Example 44, (R)-4-(6-((4-(1,1-difluoro-2-hydroxyethyl)phenyl)ethynyl)-3-oxo-1H-pyrrolo[1,2-c]imidazol-2(3H)-yl)-N-hydroxy-2-methyl-2-(methylsulfonyl)butanamide]	1 (≈ 2.02 µM)	0.25 (≈ 0.505 µM)	≤ 0.063	
C[C@@](CCN1Cc2cc(C#Cc3ccc(C4(CN5CCOCC5)CC4)cc3)cn2C1=O)(C(=O)NO)S(C)(=O)=O [Example 26, (R)-N-hydroxy-2-methyl-2-(methylsulfonyl)-4-(6-((4-(1-(morpholinomethyl)cyclopropyl)phenyl)ethynyl)-3-oxo-1H-pyrrolo[1,2-c]imidazol-2(3H)-yl)butanamide]	4 (≈ 7.21 µM)	1 (≈ 1.8 µM)	1 (≈ 1.8 µM)	
COc1ccc(-c2cc3n(c2)C(=O)N(CC[C@](C)(C(=O)NO)S(C)(=O)=O)C3)c(Cl)c1 [Example 52, (R)-4-(6-(2-chloro-4-methoxyphenyl)-3-oxo-1H-pyrrolo[1,2-c]imidazol-2(3H)-yl)-N-hydroxy-2-methyl-2-(methylsulfonyl)butanamide]	2 (≈ 4.39 µM)	≤ 0.063	≤ 0.063	
C[C@@H](O)c1ccc(C#Cc2cc3n(c2)C(=O)N(CC[C@](C)(C(=O)NO)S(C)(=O)=O)C3)cc1 [Example 13, (R)-N-hydroxy-4-(6-((4-((R)-1-hydroxyethyl)phenyl)ethynyl)-3-oxo-1H-pyrrolo[1,2-c]imidazol-2(3H)-yl)-2-methyl-2-(methylsulfonyl)butanamide]	0.5 (≈ 1.09 µM)	0.25 (≈ 0.544 µM)	0.125 (≈ 0.272 µM)	
